Test [1] deals with HEK293H cells expressing p61BRAF^V600E/R509H. The test is described as follows: p-ERK inhibition in transfected HEK293H cells. Type of test: cell-based. Conditions: HEK293-H, 1 μM lapatinib pre-treatment 1 h, PHI1 1 h, read-out: IC50 of pERK inhibition. On the procedure:
(§1) HEK239H cells were seeded in 6-well plates (1 × 10^6 cells per well) and transfected the following day using Lipofectamine 3000 (Invitrogen L3000008) according to the manufacturer’s instructions. 2 μg of p61BRAF^V600E plasmid (pcDNA-3 vector) DNA per well was employed. […] ERK signaling and BRAF^V600E expression was assessed by western blot. […] In addition, HEK239H cells seeded in 6-well plates (1 × 10^6 cells per well) were transfected with Lipofectamine 3000 containing 2 μg of p61BRAF^V600E plasmid or 2 μg of p61BRAF^V600ER509H plasmid (pcDNA-3 vector) DNA per well. 24 h after transfection cells were treated with DMSO or increasing concentrations of PHI1 for 1 h and ERK signaling, and BRAF expression was assessed by western blot.

Test [2] has as its system HEK293H cells expressing p61BRAF^V600E. The test is described as follows: p-ERK inhibition in transfected HEK293H cells. Type of test: cell-based. As to conditions: HEK293-H, 1 μM lapatinib pre-treatment 1 h, PHI1 1 h, read-out: IC50 of pERK inhibition. On the procedure:
as §1

Test [3] concerns the target T1, ABL1(E255K)-phosphorylated (Homo sapiens, UniProt P00519, E255K).
T1 construct: purchased Eurofins/DiscoverX KINOMEscan (scanEDGE panel)
The test is described as follows: KINOMEscan scanEDGE binding. Conditions: KinomeEDGE scan, compound at 1 μΜ.

A further test concerns the target T2, ABL1 (Homo sapiens, UniProt P00519).
T2 construct: purchased Invitrogen (SelectScreen service)
The test is described as follows: SelectScreen kinase activity assay. Format: biochemical. Conditions: 100 μM ATP.

In test [4] the target is T3, BRAF^V600E (Homo sapiens, UniProt P15056, V600E). The test is described as follows: SelectScreen Z'-LYTE kinase activity assay. Type of test: biochemical. On the set-up: purchased Invitrogen (SelectScreen service). Conditions: 100 μM ATP.
T3 sequence (P15056 whole entry V600E): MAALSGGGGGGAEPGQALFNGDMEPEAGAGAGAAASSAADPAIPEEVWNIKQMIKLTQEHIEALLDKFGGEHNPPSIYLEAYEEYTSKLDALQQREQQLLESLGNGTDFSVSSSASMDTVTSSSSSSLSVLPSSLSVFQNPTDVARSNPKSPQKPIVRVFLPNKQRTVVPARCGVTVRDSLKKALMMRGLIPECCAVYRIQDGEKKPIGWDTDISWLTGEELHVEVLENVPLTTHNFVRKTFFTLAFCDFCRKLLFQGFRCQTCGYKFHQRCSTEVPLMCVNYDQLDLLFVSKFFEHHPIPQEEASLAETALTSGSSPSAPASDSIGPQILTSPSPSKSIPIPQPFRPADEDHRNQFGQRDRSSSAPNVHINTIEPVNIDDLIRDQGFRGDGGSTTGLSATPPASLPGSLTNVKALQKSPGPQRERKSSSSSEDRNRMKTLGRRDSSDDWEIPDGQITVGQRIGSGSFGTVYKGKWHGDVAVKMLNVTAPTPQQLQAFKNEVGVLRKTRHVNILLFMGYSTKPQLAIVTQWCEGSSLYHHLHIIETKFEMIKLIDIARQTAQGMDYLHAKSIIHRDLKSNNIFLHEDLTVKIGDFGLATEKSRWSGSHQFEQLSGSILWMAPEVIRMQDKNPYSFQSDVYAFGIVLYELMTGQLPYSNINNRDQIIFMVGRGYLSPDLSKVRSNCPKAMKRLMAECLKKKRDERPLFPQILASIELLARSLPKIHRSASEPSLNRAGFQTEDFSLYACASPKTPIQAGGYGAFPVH
Procedure: BRAF kinase assays were performed using the Z’-LYTE™ enzymatic assay (Invitrogen, USA). […] Titrations were performed using a 1:3 dilution. Assays were performed using SelectScreen (Invitrogen).
The target in a further test is T4, ABL1-nonphosphorylated (Homo sapiens, UniProt P00519).
T4 construct: purchased Eurofins/DiscoverX KINOMEscan (scanEDGE panel)
T4 sequence (P00519 whole entry): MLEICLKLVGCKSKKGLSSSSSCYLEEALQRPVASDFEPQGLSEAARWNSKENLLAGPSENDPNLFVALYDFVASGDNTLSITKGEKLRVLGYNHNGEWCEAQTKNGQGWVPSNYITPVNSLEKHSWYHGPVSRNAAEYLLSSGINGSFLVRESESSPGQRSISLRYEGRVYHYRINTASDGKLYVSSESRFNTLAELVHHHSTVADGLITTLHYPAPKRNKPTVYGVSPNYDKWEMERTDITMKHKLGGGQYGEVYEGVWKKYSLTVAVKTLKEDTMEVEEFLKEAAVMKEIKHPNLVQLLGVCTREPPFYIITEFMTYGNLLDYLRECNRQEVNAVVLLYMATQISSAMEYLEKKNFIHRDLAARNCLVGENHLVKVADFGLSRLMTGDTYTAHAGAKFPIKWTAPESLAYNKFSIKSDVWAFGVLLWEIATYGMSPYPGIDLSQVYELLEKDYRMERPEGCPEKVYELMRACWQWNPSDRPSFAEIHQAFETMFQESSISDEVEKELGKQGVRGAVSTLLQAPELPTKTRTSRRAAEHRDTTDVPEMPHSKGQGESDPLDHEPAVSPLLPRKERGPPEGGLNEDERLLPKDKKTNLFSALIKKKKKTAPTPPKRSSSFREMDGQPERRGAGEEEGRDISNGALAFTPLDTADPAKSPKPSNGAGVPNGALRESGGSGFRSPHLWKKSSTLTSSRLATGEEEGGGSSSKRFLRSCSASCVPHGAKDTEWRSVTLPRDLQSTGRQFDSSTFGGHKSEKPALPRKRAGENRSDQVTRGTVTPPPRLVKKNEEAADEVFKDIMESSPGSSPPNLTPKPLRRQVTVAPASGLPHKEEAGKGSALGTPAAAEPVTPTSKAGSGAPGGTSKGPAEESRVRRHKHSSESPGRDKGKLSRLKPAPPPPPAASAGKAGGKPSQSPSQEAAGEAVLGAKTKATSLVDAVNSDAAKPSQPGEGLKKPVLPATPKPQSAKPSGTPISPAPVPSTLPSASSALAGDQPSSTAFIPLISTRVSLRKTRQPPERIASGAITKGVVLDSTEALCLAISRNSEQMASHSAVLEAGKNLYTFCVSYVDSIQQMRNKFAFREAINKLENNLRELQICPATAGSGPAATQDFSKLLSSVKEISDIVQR
The test is described as follows: KINOMEscan scanEDGE binding. Conditions: KinomeEDGE scan, compound at 1 μΜ.

A further test has as its target T5, IKK-beta (Homo sapiens, UniProt O14920).
T5 construct: purchased Eurofins/DiscoverX KINOMEscan (scanEDGE panel)
The test is described as follows: KINOMEscan scanEDGE binding. As to conditions: KinomeEDGE scan, compound at 1 μΜ.

Test [5] addresses T6, JAK2(JH1domain-catalytic) (Homo sapiens, UniProt O60674).
T6 construct: JAK2(JH1domain-catalytic); purchased Eurofins/DiscoverX KINOMEscan (scanEDGE panel)
The test is described as follows: KINOMEscan scanEDGE binding. As to conditions: KinomeEDGE scan, compound at 1 μΜ.

For another test, the target named is T7, EPHA2 (Homo sapiens, UniProt P29317).
T7 construct: purchased Eurofins/DiscoverX KINOMEscan (scanEDGE panel)
T7 sequence (P29317 24-976): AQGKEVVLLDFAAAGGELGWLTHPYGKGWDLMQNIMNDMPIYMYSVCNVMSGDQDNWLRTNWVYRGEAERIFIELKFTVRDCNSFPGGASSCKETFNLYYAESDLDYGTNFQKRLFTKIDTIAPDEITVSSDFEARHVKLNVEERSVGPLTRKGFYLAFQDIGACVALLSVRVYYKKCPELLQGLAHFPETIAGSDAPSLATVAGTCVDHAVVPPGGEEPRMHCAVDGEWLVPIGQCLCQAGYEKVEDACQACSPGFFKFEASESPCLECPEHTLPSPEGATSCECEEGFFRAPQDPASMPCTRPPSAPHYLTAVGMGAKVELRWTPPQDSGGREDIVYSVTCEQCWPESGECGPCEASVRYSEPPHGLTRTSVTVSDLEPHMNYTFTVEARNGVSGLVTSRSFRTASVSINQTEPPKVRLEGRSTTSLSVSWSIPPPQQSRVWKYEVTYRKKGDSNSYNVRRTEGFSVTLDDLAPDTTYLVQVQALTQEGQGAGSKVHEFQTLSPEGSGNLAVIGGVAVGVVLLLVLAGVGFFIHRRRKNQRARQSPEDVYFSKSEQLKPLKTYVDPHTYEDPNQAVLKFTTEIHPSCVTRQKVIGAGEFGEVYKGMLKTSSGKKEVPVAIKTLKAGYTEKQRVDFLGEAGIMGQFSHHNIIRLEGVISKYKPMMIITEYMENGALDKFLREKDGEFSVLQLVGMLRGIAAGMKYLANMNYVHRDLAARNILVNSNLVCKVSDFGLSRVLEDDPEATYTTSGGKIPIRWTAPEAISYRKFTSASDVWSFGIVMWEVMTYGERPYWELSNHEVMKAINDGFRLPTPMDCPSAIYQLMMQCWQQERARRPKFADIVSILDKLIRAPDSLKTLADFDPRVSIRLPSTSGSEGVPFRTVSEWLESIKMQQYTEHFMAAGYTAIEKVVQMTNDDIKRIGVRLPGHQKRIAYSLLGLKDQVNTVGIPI
The test is described as follows: KINOMEscan scanEDGE binding. Conditions: KinomeEDGE scan, compound at 1 μΜ.

The target in a further test is T8, p38-alpha (Homo sapiens, UniProt Q16539).
T8 construct: purchased Eurofins/DiscoverX KINOMEscan (scanEDGE panel)
T8 sequence (Q16539 whole entry): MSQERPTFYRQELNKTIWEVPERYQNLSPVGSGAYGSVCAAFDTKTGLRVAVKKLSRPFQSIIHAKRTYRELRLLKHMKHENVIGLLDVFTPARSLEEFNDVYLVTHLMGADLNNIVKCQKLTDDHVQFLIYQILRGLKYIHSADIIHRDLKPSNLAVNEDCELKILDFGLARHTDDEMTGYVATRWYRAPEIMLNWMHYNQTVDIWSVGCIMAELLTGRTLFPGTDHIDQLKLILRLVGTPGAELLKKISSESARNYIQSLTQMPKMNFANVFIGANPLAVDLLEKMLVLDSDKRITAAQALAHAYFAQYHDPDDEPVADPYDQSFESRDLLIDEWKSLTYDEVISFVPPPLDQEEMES
The test is described as follows: KINOMEscan scanEDGE binding. Conditions: KinomeEDGE scan, compound at 1 μΜ.

The target of a further test is T9, BTK (Homo sapiens, UniProt Q06187).
T9 construct: purchased Eurofins/DiscoverX KINOMEscan (scanEDGE panel)
The test is described as follows: KINOMEscan scanEDGE binding. Conditions: KinomeEDGE scan, compound at 1 μΜ.

Test [6] deals with T10, TYK2(JH1domain-catalytic) (Homo sapiens, UniProt P29597).
T10 construct: TYK2(JH1domain-catalytic); purchased Eurofins/DiscoverX KINOMEscan (scanEDGE panel)
T10 sequence (P29597 889-1187 limits assumed): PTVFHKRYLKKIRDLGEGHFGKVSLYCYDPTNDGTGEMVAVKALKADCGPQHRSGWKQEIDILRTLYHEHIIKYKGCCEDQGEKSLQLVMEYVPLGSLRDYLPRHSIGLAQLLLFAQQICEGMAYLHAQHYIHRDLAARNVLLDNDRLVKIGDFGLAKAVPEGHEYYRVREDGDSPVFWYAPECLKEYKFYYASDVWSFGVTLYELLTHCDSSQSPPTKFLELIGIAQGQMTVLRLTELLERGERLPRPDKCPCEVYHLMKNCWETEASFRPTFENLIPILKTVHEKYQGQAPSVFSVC
The test is described as follows: KINOMEscan scanEDGE binding. Conditions: KinomeEDGE scan, compound at 1 μΜ.

The next test concerns the target T11, ERBB4 (Homo sapiens, UniProt Q15303).
T11 construct: purchased Eurofins/DiscoverX KINOMEscan (scanEDGE panel)
The test is described as follows: KINOMEscan scanEDGE binding. As to conditions: KinomeEDGE scan, compound at 1 μΜ.

Test [7] has as its target T3, BRAF^V600E. The test is described as follows: BRAF kinase activity assay (western blot). Format: biochemical. On the set-up: purchased Invitrogen (SelectScreen service). A general note: In western blotting, separated proteins are transferred to a membrane and probed.
Procedure: Kinase activity assays were performed using BRAF Kinase Assay Kit (#17-359), CRAF Kinase Assay Kit (#17-360) and MAP Kinase/Erk Assay Kit (#17-191), following protocols by the provider (Millipore) with some modifications. In brief, BRAF and CRAF, and MEK1 recombinant proteins were incubated for 15 min with inhibitors, then corresponding substrates were added and incubated for 30 min at 30 °C and assayed via western blot.

Each structure is given as a SMILES string.

What is called IC50 is the concentration needed to halve the response being measured.

T1 sequence (P00519 whole entry E255K): as the sequence (P00519 whole entry) above, with E255K counted along it
T11 sequence (Q15303 26-1308): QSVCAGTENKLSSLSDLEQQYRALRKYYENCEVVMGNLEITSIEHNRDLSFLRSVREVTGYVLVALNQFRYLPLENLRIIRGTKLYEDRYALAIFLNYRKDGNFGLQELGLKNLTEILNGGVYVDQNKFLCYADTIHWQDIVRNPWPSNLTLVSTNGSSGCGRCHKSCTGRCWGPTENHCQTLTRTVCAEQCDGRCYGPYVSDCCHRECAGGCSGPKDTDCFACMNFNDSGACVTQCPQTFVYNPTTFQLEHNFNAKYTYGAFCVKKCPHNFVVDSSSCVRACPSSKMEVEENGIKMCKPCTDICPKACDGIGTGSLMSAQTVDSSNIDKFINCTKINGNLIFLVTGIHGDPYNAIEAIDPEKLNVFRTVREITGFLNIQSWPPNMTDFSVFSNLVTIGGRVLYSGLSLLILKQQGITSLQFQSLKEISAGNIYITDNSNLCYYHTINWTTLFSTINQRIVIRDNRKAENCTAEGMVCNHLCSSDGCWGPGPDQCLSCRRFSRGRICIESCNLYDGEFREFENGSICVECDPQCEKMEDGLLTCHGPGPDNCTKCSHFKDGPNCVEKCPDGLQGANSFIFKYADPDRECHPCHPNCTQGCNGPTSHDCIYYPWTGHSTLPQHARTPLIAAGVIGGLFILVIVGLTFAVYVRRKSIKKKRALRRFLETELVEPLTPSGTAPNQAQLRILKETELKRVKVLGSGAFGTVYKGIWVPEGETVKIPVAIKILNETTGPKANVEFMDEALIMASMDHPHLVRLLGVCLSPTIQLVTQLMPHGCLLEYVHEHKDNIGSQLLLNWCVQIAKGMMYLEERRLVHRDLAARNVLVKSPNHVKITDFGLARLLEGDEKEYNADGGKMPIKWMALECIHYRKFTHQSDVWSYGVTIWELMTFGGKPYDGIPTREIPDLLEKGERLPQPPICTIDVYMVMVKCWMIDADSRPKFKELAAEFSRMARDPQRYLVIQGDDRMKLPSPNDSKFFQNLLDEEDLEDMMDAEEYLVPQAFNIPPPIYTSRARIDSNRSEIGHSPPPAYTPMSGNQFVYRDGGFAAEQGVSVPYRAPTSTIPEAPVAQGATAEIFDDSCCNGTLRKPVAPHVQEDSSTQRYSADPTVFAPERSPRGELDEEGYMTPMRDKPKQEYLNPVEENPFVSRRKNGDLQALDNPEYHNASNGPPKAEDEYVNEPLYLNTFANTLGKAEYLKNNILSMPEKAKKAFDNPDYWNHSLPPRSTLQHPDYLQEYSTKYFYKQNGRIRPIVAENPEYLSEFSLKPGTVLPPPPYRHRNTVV
T2 sequence (P00519 whole entry): as the sequence (P00519 whole entry) above

Consider `Cc1ccc(C(=O)Nc2ccc(CNCCN3CCOCC3)c(C(F)(F)F)c2)cc1C#Cc1cnc2cccnn12` [PHI1], for which the IC50 in [1] was 6800 nM; in test [2] it was 1890 nM; against ABL1, 8.4 ± 0.3 nM; at BRAF^V600E [4] it was 10 nM. In addition, in [3], the “% Ctrl ABL1(E255K)-phosphorylated” value was 0.25 % Ctrl. In addition, the “% Ctrl ABL1-nonphosphorylated” value at ABL1-nonphosphorylated was determined as 0 % Ctrl.

In the case of `Cc1ccc(C(=O)Nc2ccc(CN3CCN(C)CC3)c(C(F)(F)F)c2)cc1C#Cc1cnc2cccnn12` [Ponatinib, 3-[2-(imidazo[1,2-b]pyridazin-3-yl)ethynyl]-4-methyl-N-{4-[(4-methylpiperazin-1-yl)methyl]-3-(trifluoromethyl)phenyl}benzamide], the “% Ctrl IKK-beta” value on IKK-beta is given as 1.4 % Ctrl. Moreover, the “% Ctrl JAK2(JH1domain-catalytic)” value in test [5] was found to be 9.5 % Ctrl. In addition, at EPHA2, the “% Ctrl EPHA2” value is recorded as 0 % Ctrl. In addition, the “% Ctrl p38-alpha” value at p38-alpha was 0 % Ctrl. In addition, the “% Ctrl BTK” value on BTK is on record as 22 % Ctrl. In addition, the “% Ctrl TYK2(JH1domain-catalytic)” value in test [6] was found to be 8.6 % Ctrl. For the same compound, at ERBB4, the “% Ctrl ERBB4” value came to 27 % Ctrl. For the same compound, on BRAF^V600E [7], the “inhibition of MEK phosphorylation by BRAF^V600E (in words)” value is reported as “potent inhibitor”.

The record behind these values is paper PMC7462985, “Inhibitors of BRAF dimers using an allosteric site” (Nature Communications, 2020).
